According to patent publication US20250034139A1, “AMINE COMPOUNDS HAVING ANTI-INFLAMMATORY, ANTIFUNGAL, ANTIPARASITIC, AND ANTICANCER ACTIVITY” (PHARMA CINQ, LLC, priority 2013, published 2025):
Where two headings read alike, the source gives them in different places.

Experiments:
[1] = system: C. neoformans (serotype A) phagocytosed by THP-1-derived macrophages; test: Example M: phagocytosed Cryptococcus neoformans antifungal screen in THP-1-derived macrophages; type: cell-based; settings: for inhibition of fungal growth after phagocytosis and lysis, in words: 0.5, 1 or 2 μM; for IC50: after macrophage phagocytosis and lysis
Description: Two concentrations of macrophages (1×10^5 and 2×10^5/well) and a high concentration of C. neoformans (4×10^6/well) (MOI values of 40 and 20 respectively) were tested in this experiment.
THP-1 cells were adjusted to 5×10^5/ml or 1×10^6/ml in cRPMI+PMA
200 μl was transferred to a flat-bottomed 96-well dish (1×10^5 and 2×10^5/well) (48 hrs at 37 C) Media was removed and fresh cRPMI+PMA added (further 24 hrs at 37 C)
C. neoformans cells in DPBS were opsonized with human serum (60 mins at 30 C)
The opsonized yeast was washed (DPBS) and resuspended at 1×10^7/ml or 2×10^7/ml in cRPMI. 100 μl added to macrophage plate (1×10^6 and 2×10^6/well) (4 hrs at 37 C) washed ×4 with DPBS 100 μl of cRPMI was added to each well (18 hrs at 37 C) Compound AC was added to some wells. Media was removed, no wash, 25 μl 0.05% Triton X-100 added to lyse cells (3 mins RT rocking) 125 μl YPD broth was added and the plate incubated (24 hrs at 30 C then 24 hrs at 37 C) C. neoformans growth was determined on a Spectrophotometer (600 nm) after 24 and 48 hours
THP-1 cells (p15) grown in cRPMI [RPMI (Lonza 12-115F) plus 10% ΔFBS (Lonza DE14-701F)] were counted on a hemacytometer. Cells were spun at 1,800 rpm, RT for 5 mins, supernatant aspirated, pellet disturbed then adjusted to 5.0×10^5/ml and 1.0×10^6/ml in cRPMI supplemented with 0.2 μg/ml phorbol 12-myristate 13-acetate (PMA) (1 mg/ml in DMSO Sigma P8139). 200 μl aliquots of each cell concentration were transferred to […] (half a plate) of a flat-bottomed 96-well dish (1×10^5 and 2×10^5/well) and placed in a 37 C incubator for 48 hours, media was then removed and 200 μl of fresh cRPMI+PMA added. The plate was incubated for an additional 24 hours at 37 C then processed for yeast uptake.
In parallel to macrophage preparation, C. neoformans cells were grown from a single colony in 20 ml YPD broth at 30 C overnight. Absorbance of 1:10 dilution of the overnight (ON) culture gave 0.89 OD at 600 nm. Estimated concentration of this stock was 4×10^8 cells/ml (2×10^8 cells/ml gave an OD 600 nm of 0.426 in an earlier study Cryptococcus macrophage development plate 3 ML113012). The cells were washed with DPBS once and resuspended in 2 ml DPBS. 230 μl of this stock (˜60×10^7 cells) was brought up to 500 μl with DPBS in an Eppendorf tube. For opsonization, 500 μl of human serum (SIGMA S7023) was added and the tube incubated at 30 C for 60 mins with orbital shaking. […] A 1:200 dilution of cells was counted (4.25×10^6/ml), equivalent to 8.5×10^8/ml for the 1× stock. 470 μl of the 1× stock was brought up to 10 ml with cRPMI for a final concentration of 4×10^7/ml.
Media was aspirated from the prepared macrophage plate and 100 μl of the opsonized fungal cell suspension added to the wells. Media without yeast was added to triplicate wells for each macrophage concentration to provide background readings. Three empty wells (no macrophages) were seeded with fungus to serve as the wash control. The plates were then incubated at 37 C for 4 hours then washed 4 times with DPBS (plates were shakes briefly after addition of DPBS to increase wash efficiency). 144 μl of cRPMI was added to each well and 6 μl of 12.5 μM, 25 μM and 50 μM stocks of compounds AM, BM, AH, and AC added in triplicate for final concentrations of 0.5 μM, 1 μM or 2 μM. The plate was incubated at 37 C, 5% CO2 for 18 hours. Media was removed, 25 μl of 0.05% Triton X-100 (SIGMA T-9284) in DPBS was added to each well and the plate rocked at RT for 3 min, to lyse the cells. 125 μl YPD broth (KD Medical YLF-3260) was then added to each well and the plate placed in a 30 C incubator. C. neoformans cell growth was determined by measuring absorbance at 600 nm on a Spectrophotometer (Spectra Max Plus using program SoftMax Pro) after […].

[2] = system: Hep3B hepatocellular carcinoma cell line; settings: for Tumor Weight (g) Mean ± SEM: Hep3B in liver of nude mice, day 35, oral daily, sorafenib 30 mg/kg/day alone, 20 mg/kg/day in combination, AC 180, AK and AB 360 μmol/kg/day; for Body Weight (g) Mean ± SEM Initial: in vivo; for Complete Regressions: number of mice with no viable tumor at necropsy, doses as Table 35
Description: Hepatocellular carcinoma (HCC) is one of the most common and lethal cancers worldwide, generally developing as a consequence of chronic infection with hepatitis B or C viruses. […] The Hep3B hepatocellular carcinoma cell line is human in origin, contains genetic traces of hepatitis B virus, and can be injected into the livers of athymic immunocompromised mice as a model of primary HCC. […] The test compounds were all administered orally.
The test compounds of the invention were suspended in 1% hydroxypropylmethylcellulose (HPMC) using a sonicator equipped with a microtip to minimize particle size and maximize uniformity of the suspension. Sorafenib was dissolved in a 1:1 mixture of Cremophor EL and ethanol by heating to 60° C. for 1 minute and then sonicating for 10 minutes to fully suspend. Female nude mice (Hsd:athymic nude-Foxn1^nu) weighing approximately 25 g were anesthetized with ketamine/xylazine, laid on their backs, and a 1-cm transverse incision made through the skin and peritoneum of the left upper abdomen. The mediant lobe of the liver was exposed by applying gentle pressure on the abdomen. 1.5-2×10^6 Hep3B cells in a 20 μL volume of matrigel:EMEM serum free (1:1) were slowly implanted by subserosal injection into the liver using a 27-gauge needle on a Hamilton syringe. The liver was allowed to slip back into place, and the peritoneum was closed with sutures and wound clips.
Mice were divided into 8 groups of mice each following injection of cells; the vehicle/vehicle group comprised 12 mice and the other groups comprised 8 or 9. Mice began receiving oral test drug treatments 48 hr post cell injection.
The test compounds, sorafenib, and vehicles were administered by oral gavage. Sorafenib or its cremophor-containing vehicle were given in the morning and compounds of the invention or their HPMC vehicle was administered in the afternoon each day; all animals received two gavage treatments of drugs or appropriate vehicles daily.

[3] = Cryptococcus neoformans, read-out: IC50 value (μM) for inhibition of fungal growth, 1 × 10^5 macrophages
[4] = Cryptococcus neoformans, read-out: IC50 value (μM) for inhibition of fungal growth, 2 × 10^5 macrophages

Compound | inhibition of fungal growth after phagocytosis and lysis, in words [1] | IC50 [1, 3] [µM] | IC50 [1, 4] [µM] | Tumor Weight (g) Mean ± SEM [2] | Body Weight (g) Mean ± SEM Initial [2] [g] | Complete Regressions ([2]; day 35) | inhibition at 2 µM ([1]; Cryptococcus neoformans, Macrophage, at 2 μM, after phagocytosis, read-out: inhibition of the fungal growth) [%] | reduction of tumor size versus vehicle ([2]; single agents, oral, day 35, sorafenib 30 mg/kg/day)
CCCCCCOc1cccc(CNc2ccnc3ccccc23)c1 [Compound AC, N-[3-(Hexyloxy)benzyl]quinolin-4-amine] | clear dose dependent inhibition of fungal growth after phagocytosis and lysis | 1.29 | 1.35 | 0.49 ± 0.17 g | 25.4 ± 0.5 | 2 | – | –
CCCCCCCCCCNc1ncnc2ccccc12 [Compound AH, N-(Decyl)quinazolin-4-amine] | clear dose dependent inhibition of fungal growth after phagocytosis and lysis | 0.29 | 0.25 | – | – | – | ~100 | –
CCCCOCCCCCCCCCCNc1ccnc2ccccc12 [AM, N-(10-Butoxydecyl)quinolin-4-amine] | clear dose dependent inhibition of fungal growth after phagocytosis and lysis | 1.13 | 0.85 | – | – | – | – | –
CCCCCCOc1cccc(CNc2ncnc3ccccc23)c1 [AK, N-[3-(Hexyloxy)benzyl]quinazolin-4-amine] | – | – | – | 1.56 ± 0.39^ g | 25.9 ± 0.7 | 2 | – | numerically but not statistically significant reduction in tumor size versus vehicle
c1ccc(Oc2cccc(CNc3ncnc4ccccc34)c2)cc1 [BM, N-(3-Phenoxybenzyl)quinazolin-4-amine] | clear dose dependent inhibition of fungal growth after phagocytosis and lysis | 1.8 | 1.31 | – | – | – | – | –
